According to patent US8198252B2, “SIRNA inhibition of PI3K P85, P110, and AKT2 and methods of use” (Board of Regents, The University of Texas System, priority 2006, dated 2012):

Columns and labels:
HT29-GFP cells = assay: Liver metastasis establishment by cells transfected with siRNA in vitro; type: in vivo, mice; settings: three weeks
Experimental: (§1) In Vivo Experiments. For in vivo studies, 4- to 6-week-old male nude^nu/nu mice were obtained from Harlan Sprague Dawley (Indianapolis, Ind.) and housed in clean, pathogen-free rooms in an environment with controlled temperature (22° C.), humidity, and a 12 hours light/dark cycle. The mice were fed standard chow (Formula Chow 5008; Purina Mills, St. Louis, Mo.) and tap water ad libitum and allowed to acclimate for 1 week. All studies were approved by the Institutional Animal Care and Use Committee of UTMB. Tumor cells were injected intrasplenically by methods previously described (Bruns et al., Neoplasia, 1:50-62 (1999)). Briefly, mice were anesthetized with halothane, a small left abdominal flank incision was created, and the spleen was exteriorized. Transfectants were harvested using only trypsin and resuspended as a single-cell suspension in Hanks Balanced Salt Solution, free of Mg^2+ and Ca^2+. Tumor cells (5×10^6 cells/400 μL) were injected into the spleen with a 27-gauge needle. The spleen was returned to the abdomen, and the wound was closed in one layer with wound clips. The mice were observed over the indicated time period using the Illumatool TLS (Lightools Research, Encinitas, Calif.). Animals were randomized into 3 experimental groups (5 animals per group) to receive p85α, p110α, or NTC siSTABLE siRNA (20 μg/mice, qod) by hydrodynamic tail vein injection (Watanabe et al., Gastroenterology, 128:1391-1404 (2005)) 24 hours after operation; mice were killed 35 days later. Experiments were performed in duplicate.
(§2) Methods of cells transfection and liver metastasis establishment are described in Example 1.
(§3) Akt2 is essential for colorectal cancer metastasis establishment. To determine whether Akt2 plays a causal role in colorectal cancer metastasis, we tested whether inhibition of Akt2 expression in the highly metastatic colorectal cancer cells would affect their metastatic ability. HT29^GFP or KM20^GFP cells were transfected with NTC (purchased from Dharmacon Inc.) or Akt2 siRNA (GUACUUCGAUGAUGAAUUU, SEQ ID NO:20) in vitro and inoculated intrasplenically (5×10^6) 60 hours later. To avoid intrasplenic tumor growth, the spleen was removed after 24 h. Animals were monitored individually for metastatic tumor growth using the Illumatool TLS. Three weeks after implantation the mice were sacrificed and the liver was examined for metastatic lesions by inspection of GFP fluorescence. […] In addition, the sizes of individual metastatic nodules present in the liver of both groups of mice were very similar. […] We also suspect that incomplete suppression of Akt2 by siRNA in a small subset of cells account for the residual ability of such cells to form liver metastasis.

KM20-GFP cells = assay: as above; type: in vivo, mice; settings: three weeks
Experimental: as §1, §2, §3

Akt2 = assay: Western blot of Akt2 in the cells used for intrasplenic inoculation; type: cell-based, human; settings: before (0 h) or after (2 h) surgical procedure
Experimental: Protein Preparation and Western Immunoblot. Western immunoblot analyses were performed as described previously (Wang et al., Clin Cancer Res. 8:1940-1947 (2002)). Cells were lysed with TNN buffer at 4° C. for 30 minutes. Lysates were clarified by centrifugation (10,000 g for 30 minutes at 4° C.) and protein concentrations determined using the method of Bradford (Bradford, Anal Biochem., 72:248-254 (1976)). Briefly, total protein (60 μg) was resolved on a 10% polyacrylamide gel and transferred to Immobilon-P […] membranes. Filters were incubated overnight at 4° C. in blotting solution (Tris-buffered saline containing 5% nonfat dried milk and 0.1% Tween 20), followed by a 1-hour incubation with primary antibodies. Filters were washed 3 times in a blocking solution and incubated with horseradish peroxidase-conjugated secondary antibodies for 1 hour. After 3 additional washes, the immune complexes were visualized by ECL detection.
Akt2 is essential for colorectal cancer metastasis establishment. […] Animals were monitored individually for metastatic tumor growth using the Illumatool TLS. Three weeks after implantation the mice were sacrificed and the liver was examined for metastatic lesions by inspection of GFP fluorescence. […]

[1] = 5×10^6 intrasplenically 60 hours later, compared with NTC siRNA

With GUACUUCGAUGAUGAAUUU [Akt2 siRNA] the “macroscopically visible metastases in the liver” value (HT29-GFP cells; [1]) was “formed very few metastases”, the “number of micrometastatic lesions in the liver (histological analysis)” value (HT29-GFP cells) was “drastically reduced” and the “sizes of individual metastatic nodules in the liver, compared with NTC group” value (HT29-GFP cells) was “very similar”. For the same sequence, the “macroscopically visible metastases in the liver” value (KM20-GFP cells; [1]) was “formed very few metastases”, the “number of micrometastatic lesions in the liver (histological analysis)” value (KM20-GFP cells) was “drastically reduced” and the “sizes of individual metastatic nodules in the liver, compared with NTC group” value (KM20-GFP cells) was “very similar”. The Akt2 expression (Akt2; HT29-GFP cells used for intrasplenic inoculation) was “confirmed Akt2 downregulation” and the Akt2 expression (Akt2; KM20-GFP cells used for intrasplenic inoculation) was “confirmed Akt2 downregulation”.
